Data set [1] in a line: Bidirectional transport across the Caco-2 cell monolayer (Papp, efflux ratio, mass balance). The settings on record: human; for recovery at 90 min, 50 μM: mass balance, total amount in AP and BL sides, incubation up to 90 min, n = 3. (Passage across Caco-2 layers is used to estimate intestinal permeability.)
Data set [2] in a line: Time course of TMF constituents during anaerobic biotransformation by human intestinal flora. The format is in vitro ADME. Particulars: male, human, human intestinal flora (faecal suspension in GAM); incubation by HIF; read-out: Time of maximum concentration. The method, then: (§1) The general anaerobic medium (GAM) of HIF was prepared as follows: 10.0 g of tryptone, 10.0 g of proteose peptone, 13.5 g of digested serum powder, 5.0 g of yeast extract, 2.2 g of beef extract, 1.2 g of beef liver extract powder, 3.0 g of glucose, 2.5 g of KH2PO4, 3.0 g of NaCl, 5.0 g of soluble starch, 0.3 g of L-cysteine hydrochloride, and 0.3 g of sodium thioglycolate were dissolved in H2O. Adjust the pH of GAM solution to 7.1–7.2 with 1M NaOH aqueous solution and supply the total volume to 1 L. Ten grams of fresh feces obtained from a healthy volunteer, who had not taken any medicine in three months, were immediately homogenized and suspended in GAM (50 mL) solution. The HIF was undertaken according to the previous paper of our laboratory. Preparation of the biotransformation products of TMF by HIF was followed by the method of previous research.
(§2) A biotransformation system consisting of HIF (10 mL) and TMF (10 mg) was anaerobically incubated at 37 °C. All experiments were carried out in sextuplicate at each time point. The biotransformation reaction was stopped at 0.5, 1, 2, 4, 8, 12, 24, 36, 48, 60 h. The biotransformation solution was extracted with n-butanol (each 10 mL) three times. The combined n-butanol layer was evaporated to dryness under a gentle stream of nitrogen. MeOH (400 μL) was used to dissolve the residue which acted as a deproteinization agent. The resultant solution was vortex-mixed for 1 min and centrifuged at 16,000 g for 10 min at 4 °C. The supernatant was collected and filtered through a 0.22 μm filter as the test solution. The blank sample was prepared using TMF-free medium solution with the same processing steps. […] The column temperature was set at 30 °C and detection wavelength was set at 254 nm.

Data set [3] concerns human intestinal flora (HIF). The description is as above. The format is in vitro ADME. Particulars: for Reduction of content (fold): after 60 h incubation by HIF; for Increase of content (fold): 60 h incubation by HIF. How it is done:
as §1, §2

Another data set relates to Caco-2 cell monolayer. Kind of data set: Bidirectional transport across the Caco-2 cell monolayer (Papp, efflux ratio, mass balance). Particulars: Caco-2 monolayer; classes after ref 18.
The next data set can be described thus: in vitro. Particulars: human.
Data set [4] concerns RAW 264.7 murine macrophages cells. Further details: method as in PMID 22644850. The settings on record: RAW 264.7 cells; compared with daidzin; cited from earlier work.
[5] abbreviates: Caco-2, pH 7.4, Level (order of magnitude) of Papp, Caco-2 monolayer.
Where [6] appears, read: Caco-2, pH 7.4, Total Recovery (%) AP→BL.
[7] abbreviates: Caco-2, pH 7.4, Total Recovery (%) BL→AP.
The mark [8] stands for this setting: Caco-2, pH 7.4, Absorption class by Papp, Caco-2 monolayer, classes after ref 18.

These results are taken from PMC6331934, “Study of the Biotransformation of Tongmai Formula by Human Intestinal Flora and Its Intestinal Permeability across the Caco-2 Cell Monolayer” (Molecules, 2015).

Usually Papp A→B stands for how fast a substance crosses the layer from the apical side. What is called Papp B→A is the apparent permeability from the basolateral to the apical side of a cell layer. Usually efflux ratio stands for a quotient of directional permeabilities that is used to spot active efflux. By Papp is commonly meant a coefficient for how fast a substance crosses the barrier.

For `COc1ccc(C2=CC(=O)OC2Cc2ccc(O)cc2)c(OC2OC(CO)C(O)C(O)C2O)c1` (racemic) [Compound 8, (±)-puerol B-2″-O-glucopyranoside], in data set [1] (Caco-2, pH 7.4), the Papp A→B at 90 min, 50 μM was found to be 1.29 ± 0.28 ×10⁻⁶ cm/s; the Papp B→A at 90 min, 50 μM was 1.03 ± 0.09 ×10⁻⁶ cm/s; the efflux ratio at 1 h, 50 μM is 0.8. The Papp at 1 h, 50 μM in data set [1] (setting [5]) is around 1 ×10⁻⁶ cm/s. For the same compound, in data set [1] (setting [6]), the recovery at 90 min, 50 μM worked out at 77%. Also, the recovery at 90 min, 50 μM in data set [1] (setting [7]) is 91.4%.
As to `O=c1c(-c2ccc(O)c(O)c2)coc2c(C3OC(CO)C(O)C(O)C3O)c(O)ccc12` (stereo not drawn) [Compound 1, 3′-hydroxypuerarin], in data set [2], the Tmax is 2 h. In data set [1] (Caco-2, pH 7.4), the Papp A→B at 90 min, 50 μM came out at 0.45 ± 0.02 ×10⁻⁶ cm/s; the Papp B→A at 90 min, 50 μM amounted to 0.29 ± 0.01 ×10⁻⁶ cm/s; the efflux ratio at 1 h, 50 μM worked out at 0.64. Besides, the recovery at 90 min, 50 μM in data set [1] (setting [6]) came to 98.1%. For the same compound, the recovery at 90 min, 50 μM in data set [1] (setting [7]) worked out at 94.4%.
Compound `O=Cc1ccc(O)c(O)c1` [Compound 2, protocatechuic aldehyde] displayed a Content remaining in data set [3] (at 60 h incubation by HIF) of around 50%.
In data set [3] (early stage (4 h) of incubation by HIF), `O=c1c(-c2ccc(O)c(O)c2)coc2c([C@@H]3O[C@H](CO[C@@H]4OC[C@](O)(CO)[C@H]4O)[C@@H](O)[C@H](O)[C@H]3O)c(O)ccc12` [Compound 3, 3′-hydroxymirificin] registered a Content remaining of around 25%. In data set [1] (Caco-2, pH 7.4), the Papp A→B at 90 min, 50 μM was determined as 0.97 ± 0.01 ×10⁻⁶ cm/s; the Papp B→A at 90 min, 50 μM came to 0.53 ± 0.01 ×10⁻⁶ cm/s; the efflux ratio at 1 h, 50 μM is 0.55. The recovery at 90 min, 50 μM in data set [1] (setting [6]) came out at 101%. In addition, the recovery at 90 min, 50 μM in data set [1] (setting [7]) worked out at 98.3%.
With `O=c1c(-c2ccc(O)cc2)coc2c([C@@H]3O[C@H](CO)[C@@H](O)[C@H](O)[C@H]3O)c(O)ccc12` [Compound 4, puerarin], the “Absorption class by Papp” value with Caco-2 cell monolayer is “poorly absorbed”. Besides, in data set [1] (Caco-2, pH 7.4), the Papp A→B at 90 min, 50 μM was 0.68 ± 0.02 ×10⁻⁶ cm/s; the Papp B→A at 90 min, 50 μM is 0.41 ± 0.01 ×10⁻⁶ cm/s; the efflux ratio at 1 h, 50 μM turned out to be 0.6. Also, the apparent permeability coefficient (Papp) at 1 h, 50 μM in data set [1] (setting [5]) was around 0.1 ×10⁻⁶ cm/s. For the same compound, in data set [1] (setting [6]), the recovery at 90 min, 50 μM was determined as 96.6%. Further, in data set [1] (setting [7]), the recovery at 90 min, 50 μM was determined as 95.7%.
In turn, `COc1cc(-c2coc3c(C4OC(CO)C(O)C(O)C4O)c(O)ccc3c2=O)ccc1O` (stereo not drawn) [Compound 5, 3′-methoxypuerarin] returned a Content remaining in data set [3] (at 60 h incubation by HIF) of around 50%. In data set [1] (Caco-2, pH 7.4), the Papp A→B at 90 min, 50 μM is 0.75 ± 0.09 ×10⁻⁶ cm/s; the Papp B→A at 90 min, 50 μM worked out at 0.47 ± 0.03 ×10⁻⁶ cm/s; the efflux ratio at 1 h, 50 μM came out at 0.63. Further, the recovery at 90 min, 50 μM in data set [1] (setting [6]) was determined as 94.6%. Besides, the recovery at 90 min, 50 μM in data set [1] (setting [7]) was determined as 86.2%.
Regarding `O=c1c(-c2ccc(O)cc2)coc2c([C@@H]3O[C@H](CO[C@@H]4OC[C@](O)(CO)[C@H]4O)[C@@H](O)[C@H](O)[C@H]3O)c(O)ccc12` [Compound 6, mirificin], the “Reduction of content (fold)” value in data set [3] was 10 fold. In addition, in data set [1] (Caco-2, pH 7.4), the Papp A→B at 90 min, 50 μM was 0.29 ± 0.01 ×10⁻⁶ cm/s; the apparent permeability from basolateral to apical (Papp B→A) at 90 min, 50 μM is 0.23 ± 0.01 ×10⁻⁶ cm/s; the efflux ratio at 1 h, 50 μM was found to be 0.79. Further, in data set [1] (setting [6]), the recovery at 90 min, 50 μM was 99.4%. Further, the recovery at 90 min, 50 μM in data set [1] (setting [7]) stood at 98.5%.
`O=c1c(-c2ccc(O)cc2)coc2cc(O[C@@H]3O[C@H](CO)[C@@H](O)[C@H](O)[C@H]3O)ccc12` [Compound 7, daidzin]: the “Reduction of content (fold)” value in data set [3] is on record as 10 fold. Further, in data set [3] (during the 60 h incubation by HIF), the “Conversion by HIF” value is “almost completely converted into daidzein (10)”. Moreover, in the data set with Caco-2 cell monolayer, the “Absorption class by Papp” value is given as “poorly absorbed”. Moreover, in data set [1] (Caco-2, pH 7.4), the Papp A→B at 90 min, 50 μM worked out at 0.4 ± 0.01 ×10⁻⁶ cm/s; the Papp B→A at 90 min, 50 μM was 0.37 ± 0.01 ×10⁻⁶ cm/s; the Papp at 1 h, 50 μM is around 0.1 ×10⁻⁶ cm/s; the efflux ratio at 1 h, 50 μM worked out at 0.92. Moreover, the recovery at 90 min, 50 μM in data set [1] (setting [6]) worked out at 99.8%. The recovery at 90 min, 50 μM in data set [1] (setting [7]) is 98.5%.
Take `O=C1C=C(c2ccc(O)cc2O)[C@@H](Cc2ccc(O)cc2)O1` [Compound 9, puerol A]: in data set [3], the “Increase of content (fold)” value is “more than 3 fold”. Besides, in data set [1] (Caco-2, pH 7.4), the Papp A→B at 90 min, 50 μM turned out to be 6.27 ± 0.81 ×10⁻⁶ cm/s; the Papp B→A at 90 min, 50 μM worked out at 8.3 ± 1.6 ×10⁻⁶ cm/s; the efflux ratio at 1 h, 50 μM was determined as 1.32. Further, the Papp at 1 h, 50 μM in data set [1] (setting [5]) is around 1 ×10⁻⁶ cm/s. The recovery at 90 min, 50 μM in data set [1] (setting [6]) amounted to 86%. The recovery at 90 min, 50 μM in data set [1] (setting [7]) came out at 90.9%.
Regarding `O=c1c(-c2ccc(O)cc2)coc2cc(O)ccc12` [Compound 10, daidzein], the Papp A→B at 90 min, 50 μM in the data set “in vitro” (Caco-2, pH 7.4) was determined as 25.5 ± 0.34 ×10⁻⁶ cm/s. In addition, in the data set “in vitro” (Caco-2, pH 7.4), the basolateral-to-apical permeability (Papp B→A) at 90 min, 50 μM stood at 26.22 ± 0.01 ×10⁻⁶ cm/s. The Papp at 1 h, 50 μM in the data set “in vitro” (Caco-2, pH 7.4, Absorption class by Papp) is above 10 ×10⁻⁶ cm/s; in “in vitro” (Caco-2, pH 7.4, Level (order of magnitude) of Papp) it was around 10 ×10⁻⁶ cm/s. Moreover, the recovery at 90 min, 50 μM in “in vitro” (setting [6]) was 93.4%; in the data set “in vitro” (setting [7]) it was 100%. Besides, in data set [4], the “Inhibitory effect on lipopolysaccharide-induced nitric oxide production” value is “stronger than that of daidzin”.
On to `O=c1c(-c2ccc(O)cc2)coc2cc(O)cc(O)c12` [Compound 11, genistein], for which the “Increase of content (fold)” value in data set [3] is given as “more than 3 fold”. Besides, in data set [1] (Caco-2, pH 7.4), the Papp A→B at 90 min, 50 μM came to 32.4 ± 3.86 ×10⁻⁶ cm/s; the Papp B→A at 90 min, 50 μM is 37.7 ± 1.93 ×10⁻⁶ cm/s; the efflux ratio at 1 h, 50 μM amounted to 1.16. Further, in data set [1] (setting [8]), the Papp at 1 h, 50 μM was above 10 ×10⁻⁶ cm/s. Also, the Papp at 1 h, 50 μM in data set [1] (setting [5]) was around 10 ×10⁻⁶ cm/s. Also, the recovery at 90 min, 50 μM in data set [1] (setting [6]) worked out at 86.7%. In addition, the recovery at 90 min, 50 μM in data set [1] (setting [7]) was determined as 75.7%.
For `COc1ccc(-c2coc3cc(O)ccc3c2=O)cc1` [Compound 12, formononetin], the “Increase of content (fold)” value in data set [3] is given as “more than 3 fold”. Also, in data set [1] (Caco-2, pH 7.4), the Papp A→B at 90 min, 50 μM was determined as 30.64 ± 0.07 ×10⁻⁶ cm/s; the Papp B→A at 90 min, 50 μM is 26.5 ± 1.1 ×10⁻⁶ cm/s; the efflux ratio at 1 h, 50 μM was found to be 0.87. Moreover, the Papp at 1 h, 50 μM in data set [1] (setting [8]) is above 10 ×10⁻⁶ cm/s. Further, the Papp at 1 h, 50 μM in data set [1] (setting [5]) was around 10 ×10⁻⁶ cm/s. For the same compound, the recovery at 90 min, 50 μM in data set [1] (setting [6]) worked out at 102%. Moreover, the recovery at 90 min, 50 μM in data set [1] (setting [7]) was found to be 98%.
Regarding `CC(C)NCC(O)COc1cccc2ccccc12` (stereo not drawn) [propranolol, reference compound], the Papp A→B at 1 h in data set [1] (Caco-2, pH 7.4) was 33.7 ×10⁻⁶ cm/s.
